Results taken from patent US20210030698A1, “GEL CONTAINING ZERUMBONE FROM BITTER GINGER (ZINGIBER ZERUMBET) FOR CURATIVE TREATMENT OF DIABETIC ULCERS” (INSTITUTO NACIONAL DE PESQUISAS DA AMAZÔNIA ? INPA, priority 2018, published 2021).

Legend:
mice [1] = experiment: analgesic activity in chemical and thermal models of pain (acetic acid, formalin, capsaicin); format: in vivo
mice [2] = experiment: hot plate test pain model; format: in vivo; conditions: hot plate 49-54° C.
rat paw edema = experiment: anti-inflammatory activity, carrageenan rat paw edema; format: in vivo; conditions: croton oil and arachidonic acid models
[3] = barbiturate sleep (sodium pentobarbital); format: in vivo; conditions: sodium pentobarbital (nembutal)
Artemia salina = experiment: in vitro cytotoxicity test on Artemia salina
Method: In the in vitro cytotoxicity tests, zerumbone produced mortality for Artemia salina of CL50—45 ug/ml, showing a positive correlation between antitumor and anti-inflammatory activities.

SMILES: C/C1=C\CC(C)(C)/C=C/C(=O)/C(C)=C/CC1 [zerumbone]
- analgesic activity against pain models acetic acid, formalin and capsaicin (mice [1]; administered orally and intraperitoneally): significant, dose-dependent analgesic activity
- analgesic effect in chemical and thermal models of pain (mice [1]; doses of 250 to 1000 mg/kg, mice): potent analgesic effect
- latency of the animals in the hot plate test (mice [2]): significantly increased
- anti-inflammatory effect, inhibition of carrageenan inflammatory response in rat paw edema (rat paw edema): significant and dose-dependent anti-inflammatory effects
- barbiturate sleep recovery time (T.R) [3]: approximately 600 minutes
- CL50 mortality for Artemia salina (Artemia salina): 45 µg/mL
